{"source": "patent US20210395312A1", "about": "“QUANTUM CONFINED PEPTIDE ASSEMBLIES AND USES THEREOF” (Ramot at Tel-Aviv University Ltd., priority 2019, published 2021)", "type_in_all_cases": "physicochemical", "key": {"[1]": {"assay": "Fluorescence photostability", "method": "Fluorescence photostability: Fluorescence emission spectra were measured at different time points (1 day, 7 days and 14 days). The excitation and emission slit widths were each set at 5 nm. Three measurements were performed and averaged for accuracy."}, "[2]": {"assay": "Fluorescence photobleaching", "settings": "continuous irradiation for 600 seconds", "method": "The fluorescence emission data was collected at 80 points per second for 10 minutes. The excitation and emission slit widths were each set at 5 nm. At least three measurements were performed and averaged for accuracy."}, "[3]": {"assay": "Fluorescent decay measurement (lifetime)", "settings": "MeOH; for Lifetime (τ): at maximal excitation and emission", "method": "Fluorescent decay measurement (lifetime): 600 μL sample solution was pipetted into a 1.0 cm path-length quartz cuvette, and the spectrum was collected using a FluoroMax-4 Spectrofluorometer (Horiba Jobin Yvon, Kyoto, Japan) equipped with a NanoLED laser excitation source at ambient temperature. The wavelength was set as the maximum excitation and emission of the samples, and a LUDOX sample (silica beads, 2 μm) was used as the prompt. The lifetime was determined by fitting the fluorescent decay data from the DAS6 Analysis software (Horiba Jobin Yvon, Kyoto, Japan). Three measurements were performed and averaged for accuracy."}, "[4]": {"assay": "Fluorescence characterization (excitation/emission) of self-assemblies", "settings": "for fluorescent emission / Emission (λEm) / Excitation (λEx): MeOH; for fluorescent emission: excited at 370 nm; for Emission (λEm): maximal emission; for Excitation (λEx): maximal excitation", "method": "UV-Visible fluorescence characterization: 600 μL sample solution was pipetted into a 1.0 cm path-length quartz cuvette, and the spectrum was collected using a FluoroMax-4 Spectrofluorometer (Horiba Jobin Yvon, Kyoto, Japan) at ambient temperature. For molecular fluorescence of some experiments, the emission wavelength was set at 350 nm with a slit of 3 nm, and the excitation wavelength was set at 200-330 nm with a slit of 3 nm. For self-assembly fluorescence, the excitation wavelength was set at 370 nm with a slit of 3 nm, and the emission wavelength was set at 380-700 nm with a slit of 3 nm. For excitation-dependent maximal emission evolution experiment, the excitation wavelengths were set at 300-450 nm with a slit of 3 nm, and the emission wavelengths were set at 380-600 nm with a slit of 3 nm. According to the samples, anhydrous MeOH or MeOH solution of ZnCl2 (CuCl2) was used as background and subtracted. At least five measurements were performed and averaged for accuracy. Emission and excitation wavelengths, slit dimensions and background solutions were adjusted per the measured sample and are as indicated below. […]\n(§1) Fluorescence spectroscopy and quantum yield (QY) measurement: 600 μL sample solution was pipetted into a 1.0 cm path-length quartz cuvette, and the spectrum was collected using a FluoroMax-4 Spectrofluorometer (Horiba Jobin Yvon, Kyoto, Japan) at ambient temperature. The excitation and emission wavelengths were set at 300-500 nm and 400-650 nm, respectively, with a slit of 2 nm. Absolute fluorescence QY measurements were performed using Quanta-Phi integrating sphere connected to Fluoromex-4."}, "[5]": {"assay": "Morphology and size of self-assemblies (AFM, DLS, TEM)", "settings": "self-assemblies in MeOH", "method": "Dynamic light scattering (DLS): 850 μL of the sample solution was introduced into a DTS1070 folded capillary cell (Malvern, Worcestershire, U.K.), and the size was measured using a Zetasizer Nano ZS analyzer (Malvern Instruments, Malvern, UK) at 25.0° C. and a backscatter detector (173°). Three measurements were performed and averaged for accuracy.\nAtomic force microscopy (AFM): 4 μL of sample solution was dropped onto a freshly cleaved mica surface and let it dry. The mica was then rinsed with water and purged dried gently with nitrogen. A topographic image was recorded under a NanoWizard 3 BioScience AFM (JPK, Berlin, Germany) in the tapping mode at ambient temperature, with 512×512 pixel resolution and a scanning speed of 1.0 Hz.\nTransmission electron microscopy (TEM): A carbon-coated copper grid was placed on a 10 μL cyclo-dipeptide droplet for 1 minute and then blotted. Next, the washed grid was placed on a 10 μL droplet containing 4% (w/v) uranyl acetate solution for 1 min and then blotted. Samples were examined using Tecnai G2 Spirit TEM (FEI) at 80 kV.\nAtomic force microscopy (AFM): 5 μL of sample solution was dropped onto a freshly cleaved mica surface and dried by N2 purge (99.99%). The mica was then rinsed with water and gently purge dried with nitrogen. A topographic image was recorded under a Dimension icon AFM (Bruker) in the tapping mode at ambient temperature, with a 512×512-pixel resolution and a scanning speed of 1.0 Hz. Nanoscope Analysis software was used for data collection and analysis.\nFor cyclo-dipeptide-Zn structures, aliquots (10 μL) of cyclo-dipeptide-Zn were added into a glow discharge copper grid (400 mesh) coated with a thin carbon film for 2 minutes. Excess solution was then removed, and the grid was washed three times with deionized water. TEM images were viewed using a FEI Tecnai F20 electron microscope operating at 80 kV."}, "[6]": {"assay": "Quantum yield (QY) measurement", "settings": "MeOH; excitation set at 350 nm if maximal excitation less than 350 nm", "method": "Quantum yield (QY) measurement: 5 mL sample solution was pipetted into a 1.0 cm path-length quartz cuvette with a tube (Hellma, Müllheim, Germany), and the absolute quantum yield was measured on an absolute PL quantum yield spectrometer C11347 (Hamamatsu Photonics, Shizuoka, Japan) at ambient temperature. The relevant blanks, namely anhydrous MeOH, MeOH solutions of ZnCl2 (CuCl2), or DMSO solution of ZnCl2, were used as background and subtracted. At least five measurements were performed and averaged for accuracy.\nas §1"}, "[7]": {"settings": "emission band 425, excitation 340 nm"}, "[8]": {"settings": "emission band 520, excitation 420 nm"}, "[9]": {"settings": "emission band 380 (strong), excitation 320 nm"}, "[10]": {"settings": "emission band 465 (weak), excitation 370 nm"}}, "note": "Several values for one entry are separate records, joined by “and”; a condition that tells them apart may be missing. Identical values can stand only once.", "data": [{"compound": "CC1(C)C(/C=C/C=C/C=C/C=C2\\N(CCCCS(=O)(=O)O)c3ccc4ccccc4c3C2(C)C)=[N+](CCCCS(=O)(=O)[O-])c2ccc3ccccc3c21", "note": "[ICG, indocyanine green]", "values": [{"measurement": "fluorescence after exposure to natural light (photostability)", "setting": "[1]; after 1 day", "result": "lost all fluorescence"}, {"measurement": "photoluminescence after continuous irradiation (photobleaching)", "setting": "[2]", "result": "significant fluorescence decay"}]}, {"compound": "cyanine 5.5 [Cy5.5]", "values": [{"measurement": "fluorescence lost (photostability)", "setting": "[1]; after 1 week", "result": 20, "unit": "%"}, {"measurement": "photoluminescence after continuous irradiation (photobleaching)", "setting": "[2]", "result": "significant fluorescence decay"}]}, {"compound": "cyclo-dihistidine [cyclo-HH]", "values": [{"measurement": "Lifetime (τ)", "setting": "[3]; [7]", "result": "4.89 ± 0.02", "unit": "ns"}, {"measurement": "Lifetime (τ)", "setting": "[3]; [8]", "result": "6.48 ± 0.04", "unit": "ns"}, {"measurement": "fluorescent emission", "setting": "[4]", "result": 430, "unit": "nm"}, {"measurement": "Emission (λEm)", "setting": "[4]; [7]", "result": 425, "unit": "nm"}, {"measurement": "Emission (λEm)", "setting": "[4]; [8]", "result": 520, "unit": "nm"}, {"measurement": "Excitation (λEx)", "setting": "[4]; [7]", "result": 340, "unit": "nm"}, {"measurement": "Excitation (λEx)", "setting": "[4]; [8]", "result": 420, "unit": "nm"}, {"measurement": "Structures", "setting": "[5]", "result": "nanofibers"}, {"measurement": "QY", "setting": "[6]", "result": 3, "unit": "%"}]}, {"compound": "cyclo-dityrosine [cyclo-YY]", "values": [{"measurement": "emission", "setting": "[4]; DMSO, Ex 450 nm (cyclo-FF), Ex 480 nm (cyclo-YY)", "result": 570, "unit": "nm"}, {"measurement": "Emission (λEm)", "setting": "[4]", "result": "no detectable emissions"}, {"measurement": "Structures", "setting": "[5]", "result": "platelets"}]}, {"compound": "histidine-tyrosine cyclic dipeptide [cyclo-HY]", "values": [{"measurement": "Lifetime (τ)", "setting": "[3]", "result": "0.003 ± 0.034", "unit": "ns"}, {"measurement": "Emission (λEm)", "setting": "[4]", "result": 390, "unit": "nm"}, {"measurement": "Excitation (λEx)", "setting": "[4]", "result": 310, "unit": "nm"}, {"measurement": "Structures", "setting": "[5]", "result": "nanofibers"}]}, {"compound": "phenylalanine-histidine cyclic dipeptide [cyclo-HF]", "values": [{"measurement": "Lifetime (τ)", "setting": "[3]", "result": "3.29 ± 0.03", "unit": "ns"}, {"measurement": "Emission (λEm)", "setting": "[4]", "result": 410, "unit": "nm"}, {"measurement": "Excitation (λEx)", "setting": "[4]", "result": 340, "unit": "nm"}, {"measurement": "Structures", "setting": "[5]", "result": "nanofibers"}]}, {"compound": "phenylalanine-tyrosine cyclic dipeptide [cyclo-FY]", "values": [{"measurement": "Lifetime (τ)", "setting": "[3]", "result": "0.022 ± 0.003", "unit": "ns"}, {"measurement": "Emission (λEm)", "setting": "[4]", "result": 430, "unit": "nm"}, {"measurement": "Excitation (λEx)", "setting": "[4]", "result": 350, "unit": "nm"}, {"measurement": "Structures", "setting": "[5]", "result": "nanofibers"}, {"measurement": "QY", "setting": "[6]", "result": 3, "unit": "%"}]}, {"compound": "tryptophan-histidine cyclic dipeptide [cyclo-WH]", "values": [{"measurement": "Emission (λEm)", "setting": "[4]; [9]", "result": "380 (strong) nm"}, {"measurement": "Emission (λEm)", "setting": "[4]; [10]", "result": "465 (weak) nm"}, {"measurement": "Excitation (λEx)", "setting": "[4]; [9]", "result": 320, "unit": "nm"}, {"measurement": "Excitation (λEx)", "setting": "[4]; [10]", "result": 370, "unit": "nm"}, {"measurement": "Structures", "setting": "[5]", "result": "nanofibers"}]}, {"compound": "tryptophan-tryptophan cyclic dipeptide [cyclo-WW]", "values": [{"measurement": "Lifetime (τ)", "setting": "[3]", "result": "5.45 ± 0.03", "unit": "ns"}, {"measurement": "fluorescence lifetime", "setting": "[3]; excitation 370 nm", "result": 5.6, "unit": "ns"}, {"measurement": "fluorescent emission", "setting": "[4]", "result": "425 nm and 520 nm"}, {"measurement": "Emission (λEm)", "setting": "[4]; emission band 440 (strong), excitation 370 nm", "result": "440 (strong) nm"}, {"measurement": "Excitation (λEx)", "setting": "[4]", "result": 370, "unit": "nm"}, {"measurement": "Structures", "setting": "[5]", "result": "nanospheres"}]}, {"compound": "tyrosine-tryptophan cyclic dipeptide [cyclo-WY]", "values": [{"measurement": "Lifetime (τ)", "setting": "[3]", "result": "0.232 ± 0.004", "unit": "ns"}, {"measurement": "Emission (λEm)", "setting": "[4]", "result": 400, "unit": "nm"}, {"measurement": "Excitation (λEx)", "setting": "[4]", "result": 320, "unit": "nm"}, {"measurement": "Structures", "setting": "[5]", "result": "nanofibers"}]}]}
